Patent publication US7446117B2, “Cox-2 inhibiting pyridine derivatives” (Glaxo Group Limited, priority 2002, dated 2008)
Each block holds one molecule with its values, some of them ahead of it.

Target: T1, microsomal h-COX2 (Homo sapiens, UniProt P35354)
T1 construct: made in house; host or cells: baculovirus infected SF9 cells (microsomal preparation)
T1 sequence (P35354 18-604): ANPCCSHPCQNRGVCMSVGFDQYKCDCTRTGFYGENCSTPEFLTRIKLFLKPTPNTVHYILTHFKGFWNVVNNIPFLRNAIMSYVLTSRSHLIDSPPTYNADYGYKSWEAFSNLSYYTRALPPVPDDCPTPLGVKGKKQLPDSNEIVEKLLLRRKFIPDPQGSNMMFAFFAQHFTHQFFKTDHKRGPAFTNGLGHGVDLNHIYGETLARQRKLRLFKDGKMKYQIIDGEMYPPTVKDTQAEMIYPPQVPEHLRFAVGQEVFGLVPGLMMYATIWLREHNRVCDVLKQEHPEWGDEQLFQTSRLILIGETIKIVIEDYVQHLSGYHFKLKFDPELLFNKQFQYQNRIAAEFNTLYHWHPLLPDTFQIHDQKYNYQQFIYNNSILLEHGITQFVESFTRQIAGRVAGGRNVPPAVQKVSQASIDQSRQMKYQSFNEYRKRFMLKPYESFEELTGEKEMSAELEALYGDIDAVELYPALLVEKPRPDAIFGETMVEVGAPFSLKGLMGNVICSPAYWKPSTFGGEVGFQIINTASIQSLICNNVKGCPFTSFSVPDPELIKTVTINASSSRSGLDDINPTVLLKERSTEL
Assay: Microsomal assay: inhibitory activity against microsomal h-COX2
Type: biochemical
Conditions: microsomal preparation from baculovirus infected SF9 cells; 1 hour incubation with compound; 0.1 μM arachidonic acid, 10 minutes; PGE2 by EIA; read-out: IC50 values for inhibition of COX-2
Description: Biological Data Microsomal Assay
Inhibitory activity against microsomal h-COX2 was assessed against a microsomal preparation from baculovirus infected SF9 cells. An aliquot of microsomal preparation was thawed slowly on ice and a 1/40,000 dilution prepared from it into the assay buffer (sterile water, degassed with argon containing 100 mM HEPES (pH 7.4), 10 mM EDTA (pH7.4), 1 mM phenol, 1 mM reduced glutathione, 20 mg/ml gelatin and 0.001 mM Hematin). Once diluted the enzyme solution was then sonicated for 5 seconds (Branson sonicator, setting 4, 1 cm tip) to ensure a homogeneous suspension. 155 μl enzyme solution was then added to each well of a 96-well microtitre plate containing either 5 μl test compound (40× required test concentration) or 5 μl DMSO for controls. Plates were then mixed and incubated at room temperature for 1 hour. Following the incubation period, 40 μl of 0.5 μM arachidonic acid was added to each well to give a final concentration of 0.1 μM. Plates were then mixed and incubated for exactly 10 minutes (room temperature) prior to addition of 25 μl 1M HCl (hydrochloric acid) to each well to stop the reaction. 25 μl of 1M NaOH (sodium hydroxide) was then added to each well to neutralise the solution prior to determination of PGE2 levels by enzyme immunoassay (EIA).

- IC50: ≤ 500 nM
Structure (SMILES): CS(=O)(=O)c1ccc(-c2cc(C(F)(F)F)cc(Oc3cccnc3)n2)cc1 [Example 150]

- IC50: ≤ 500 nM
Structure (SMILES): CS(=O)(=O)c1ccc(-c2cc(C(F)(F)F)cc(NCc3cnccn3)n2)cc1 [Example 168]

- IC50: ≤ 500 nM
Structure (SMILES): Cc1ccc(COc2cc(C(F)(F)F)cc(-c3ccc(S(C)(=O)=O)cc3)n2)cn1 [Example 186]

- IC50: ≤ 500 nM
Structure (SMILES): CS(=O)(=O)c1ccc(-c2cc(C(F)(F)F)cc(NC3CCCCCC3)n2)cc1 [Example 209]

- IC50: ≤ 500 nM
Structure (SMILES): CCc1cc(-c2ccc(S(C)(=O)=O)cc2)nc(NCc2cnn(C)c2)c1F [Example 143]

- IC50: ≤ 500 nM
Structure (SMILES): CCc1cc(NCc2nc(C)cs2)nc(-c2ccc(S(C)(=O)=O)cc2)c1 [Example 142]

- IC50: ≤ 500 nM
Structure (SMILES): Cc1nn(C)cc1CNc1cc(C(F)(F)F)cc(-c2ccc(S(C)(=O)=O)cc2)n1 [Example 187]

- IC50: ≤ 500 nM
Structure (SMILES): CCn1ncnc1CNc1cc(C)cc(-c2ccc(S(C)(=O)=O)cc2)n1 [Example 234, N-[(1-ethyl-1H-1,2,4-triazol-5-yl)methyl]-4-methyl-6-[4-(methylsulfonyl)phenyl]pyridine-2-amine]

- IC50: ≤ 500 nM
Structure (SMILES): Cc1noc(CNc2cc(C(F)(F)F)cc(-c3ccc(S(C)(=O)=O)cc3)n2)n1 [Example 213]

- IC50: ≤ 500 nM
Structure (SMILES): Cc1ccc(COc2nc(-c3ccc(S(C)(=O)=O)cc3)cc(C)c2C#N)cn1 [Example 149]

- IC50: ≤ 500 nM
Structure (SMILES): CCN(Cc1ccccc1)c1cc(C)cc(-c2ccc(S(C)(=O)=O)cc2)n1 [Example 128]

- IC50: ≤ 500 nM
Structure (SMILES): Cc1ccc(Nc2cc(C(F)(F)F)cc(-c3ccc(S(C)(=O)=O)cc3)n2)cn1 [Example 163]

- IC50: ≤ 500 nM
Structure (SMILES): CCc1cc(-c2ccc(S(C)(=O)=O)cc2)nc(NCc2ccccc2)c1C#N [Example 148]

- IC50: ≤ 500 nM
Structure (SMILES): CS(=O)(=O)c1ccc(-c2cc(C(F)(F)F)cc(N[C@H]3CC[C@H](C)CC3)n2)cc1 [Example 207]

- IC50: ≤ 500 nM
Structure (SMILES): Cc1cc(NCc2conc2C)nc(-c2ccc(S(C)(=O)=O)cc2)c1 [Example 202]

- IC50: ≤ 500 nM
Structure (SMILES): CCc1cc(NCc2ncnn2C)nc(-c2ccc(S(C)(=O)=O)cc2)c1 [Example 233]

- IC50: ≤ 500 nM
Structure (SMILES): Cc1cc(NCc2csnc2C)nc(-c2ccc(S(C)(=O)=O)cc2)c1 [Example 125]

- IC50: ≤ 500 nM
Structure (SMILES): CCc1cc(-c2ccc(S(C)(=O)=O)cc2)nc(NCc2nc(C)cs2)c1C#N [Example 229]

- IC50: ≤ 500 nM
Structure (SMILES): Cc1csc(CNc2cc(C(F)(F)F)cc(-c3ccc(S(C)(=O)=O)cc3)n2)n1 [Example 189]

- IC50: ≤ 500 nM
Structure (SMILES): Cc1ccc(Oc2cc(C(F)(F)F)cc(-c3ccc(S(C)(=O)=O)cc3)n2)c(C)n1 [Example 183]

- IC50: ≤ 500 nM
Structure (SMILES): Cc1cccc(Nc2cc(C(F)(F)F)cc(-c3ccc(S(C)(=O)=O)cc3)n2)n1 [Example 162]

- IC50: ≤ 500 nM
Structure (SMILES): CCc1cc(OCc2cccc(C)n2)nc(-c2ccc(S(C)(=O)=O)cc2)c1 [Example 135]

- IC50: ≤ 500 nM
Structure (SMILES): CS(=O)(=O)c1ccc(-c2cc(C(F)(F)F)cc(OCc3ccccn3)n2)cc1 [Example 164, 2-[4-(methylsulfonyl)phenyl]-6-[(2-pyridinylmethyl)oxy]-4-(trifluoromethyl)pyridine]

- IC50: ≤ 500 nM
Structure (SMILES): CCOC(=O)c1c(CC)cc(-c2ccc(S(C)(=O)=O)cc2)nc1NCc1ccccc1 [Example 197]

- IC50: ≤ 500 nM
Structure (SMILES): CCc1cc(-c2ccc(S(C)(=O)=O)cc2)nc(OCc2ccccn2)c1C#N [Example 217]

- IC50: ≤ 500 nM
Structure (SMILES): CCOc1ccc(Nc2cc(CC)cc(-c3ccc(S(C)(=O)=O)cc3)n2)cc1 [Example 154]

- IC50: ≤ 500 nM
Structure (SMILES): CN(Cc1ccco1)c1cc(C(F)(F)F)cc(-c2ccc(S(C)(=O)=O)cc2)n1 [Example 170]

- IC50: ≤ 500 nM
Structure (SMILES): Cc1cc(NCc2nc(C)cs2)nc(-c2ccc(S(C)(=O)=O)cc2)c1 [Example 124]

- IC50: ≤ 500 nM
Structure (SMILES): CCO[C@H]1CC[C@H](Nc2cc(C(F)(F)F)cc(-c3ccc(S(C)(=O)=O)cc3)n2)CC1 [Example 221]

- IC50: ≤ 500 nM
Structure (SMILES): CS(=O)(=O)c1ccc(-c2cc(C(F)(F)F)cc(OCc3ccc(Br)cn3)n2)cc1 [Example 200]

The remaining lines, values behind:

Structure (SMILES): Cc1cc(NCc2ccccn2)nc(-c2ccc(S(C)(=O)=O)cc2)c1 [Example 28]
- IC50: ≤ 500 nM

Structure (SMILES): CCn1ccnc1CNc1cc(C)cc(-c2ccc(S(C)(=O)=O)cc2)n1 [Example 112]
- IC50: ≤ 500 nM

Structure (SMILES): Cc1ccc(CNc2cc(C(F)(F)F)cc(-c3ccc(S(C)(=O)=O)cc3)n2)cc1 [Example 48]
- IC50: ≤ 500 nM

Structure (SMILES): Cc1cc(NCc2ccncc2)nc(-c2ccc(S(C)(=O)=O)cc2)c1 [Example 27]
- IC50: ≤ 500 nM

Structure (SMILES): Cc1cc(-c2ccc(S(C)(=O)=O)cc2)nc(N(C)Cc2nccn2C)c1 [Example 110]
- IC50: ≤ 500 nM

Structure (SMILES): Cc1cc(NCc2cnn(C)c2C)nc(-c2ccc(S(C)(=O)=O)cc2)c1 [Example 114]
- IC50: ≤ 500 nM

Structure (SMILES): Cc1ccc(CNc2nc(-c3ccc(S(C)(=O)=O)cc3)cc(C)c2C#N)cn1 [Example 192]
- IC50: ≤ 500 nM

Structure (SMILES): Cc1cc(NCc2ccc(Cl)cc2)nc(-c2ccc(S(C)(=O)=O)cc2)c1 [Example 4]
- IC50: ≤ 500 nM

Structure (SMILES): CS(=O)(=O)c1ccc(-c2cc(C(F)(F)F)cc(NCc3ccccc3Cl)n2)cc1 [Example 50]
- IC50: ≤ 500 nM

Structure (SMILES): Cc1cc(-c2ccc(S(C)(=O)=O)cc2)nc(N(C)Cc2cccc(C)n2)c1 [Example 68]
- IC50: ≤ 500 nM

Structure (SMILES): Cc1cc(-c2ccc(S(C)(=O)=O)cc2)nc(NCC(C)C)c1C [Example 60]
- IC50: ≤ 500 nM

Structure (SMILES): CCc1cc(NCc2nccn2C)nc(-c2ccc(S(C)(=O)=O)cc2)c1 [Example 108]
- IC50: ≤ 500 nM

Structure (SMILES): Cc1cc(NCc2ccccc2C)nc(-c2ccc(S(C)(=O)=O)cc2)c1 [Example 95]
- IC50: ≤ 500 nM

Structure (SMILES): Cc1ccc(CNc2cc(C)cc(-c3ccc(S(C)(=O)=O)cc3)n2)cc1 [Example 25]
- IC50: ≤ 500 nM

Structure (SMILES): Cc1cc(NCc2ccn(C)n2)nc(-c2ccc(S(C)(=O)=O)cc2)c1 [Example 82]
- IC50: ≤ 500 nM

Structure (SMILES): CCc1cc(NCc2cccs2)nc(-c2ccc(S(C)(=O)=O)cc2)c1 [Example 120]
- IC50: ≤ 500 nM

Structure (SMILES): Cc1cc(NCc2ccco2)nc(-c2ccc(S(C)(=O)=O)cc2)c1 [Example 24]
- IC50: ≤ 500 nM

Structure (SMILES): Cc1ccc(CNc2cc(C(F)(F)F)cc(-c3ccc(S(C)(=O)=O)cc3)n2)o1 [Example 22]
- IC50: ≤ 500 nM

Structure (SMILES): CCc1cc(OCc2ccnn2C)nc(-c2ccc(S(C)(=O)=O)cc2)c1 [Example 116]
- IC50: ≤ 500 nM

Structure (SMILES): CCc1cc(Nc2ccc(C)nc2)nc(-c2ccc(S(C)(=O)=O)cc2)c1 [Example 99]
- IC50: ≤ 500 nM

Structure (SMILES): CCc1cc(NCC2CCOCC2)nc(-c2ccc(S(C)(=O)=O)cc2)c1 [Example 46]
- IC50: ≤ 500 nM

Structure (SMILES): CCOc1ccc(CNc2cc(C)cc(-c3ccc(S(C)(=O)=O)cc3)n2)cc1 [Example 30]
- IC50: ≤ 500 nM

Structure (SMILES): Cc1cc(OCc2cc(C)n[nH]2)nc(-c2ccc(S(C)(=O)=O)cc2)c1 [Example 85]
- IC50: ≤ 500 nM

Structure (SMILES): COc1ccc(Nc2cc(C)cc(-c3ccc(S(C)(=O)=O)cc3)n2)cc1 [Example 9]
- IC50: ≤ 500 nM

Structure (SMILES): CCc1cc(NCc2cnccn2)nc(-c2ccc(S(C)(=O)=O)cc2)c1 [Example 103]
- IC50: ≤ 500 nM

Structure (SMILES): COc1ccc(CNc2cc(C)cc(-c3ccc(S(C)(=O)=O)cc3)n2)cc1 [Example 20]
- IC50: ≤ 500 nM

Structure (SMILES): Cc1cc(-c2ccc(S(C)(=O)=O)cn2)nc(N(C)Cc2ccccc2)c1 [Example 62]
- IC50: ≤ 500 nM

Structure (SMILES): CCc1cc(OCc2cccnc2)nc(-c2ccc(S(C)(=O)=O)cc2)c1 [Example 101]
- IC50: ≤ 500 nM

Structure (SMILES): Cc1cc(Nc2ccc(F)cc2)nc(-c2ccc(S(C)(=O)=O)cc2)c1 [Example 43]
- IC50: ≤ 500 nM

Structure (SMILES): Cc1cc(NC2CCCC2)nc(-c2ccc(S(C)(=O)=O)cc2)c1 [Example 1, N-Cyclopentyl-4-methyl-6-[4-(methylsulfonyl)phenyl]pyridine-2-amine]
- IC50: ≤ 500 nM

Structure (SMILES): Cc1cc(NCc2ccccc2)nc(-c2ccc(S(C)(=O)=O)c(F)c2)c1 [Example 67]
- IC50: ≤ 500 nM

Structure (SMILES): Cc1cc(NCc2ncc[nH]2)nc(-c2ccc(S(C)(=O)=O)cc2)c1 [Example 76]
- IC50: ≤ 500 nM

Structure (SMILES): Cc1cc(Oc2cccnc2)nc(-c2ccc(S(C)(=O)=O)cc2)c1 [Example 11]
- IC50: ≤ 500 nM

Structure (SMILES): Cc1cc(NCc2cccnc2)nc(-c2ccc(S(C)(=O)=O)cc2)c1 [Example 15]
- IC50: ≤ 500 nM

Structure (SMILES): COc1ccc(Nc2cc(C)cc(-c3ccc(S(C)(=O)=O)cn3)n2)cc1 [Example 70]
- IC50: ≤ 500 nM

Structure (SMILES): Cc1cc(NCc2ccc(F)cc2)nc(-c2ccc(S(C)(=O)=O)cc2)c1 [Example 21]
- IC50: ≤ 500 nM

Structure (SMILES): CS(=O)(=O)c1ccc(-c2cc(C(F)(F)F)cc(NC3CCCCC3)n2)cc1 [Example 54, N-cyclohexyl-4-(trifluoromethyl)-6-[4-(methylsulfonyl)phenyl]pyridine-2-amine]
- IC50: ≤ 500 nM
